The term Ki denotes a measure of affinity in units of concentration, obtained from inhibition or displacement.

Molecules are shown by their SMILES.

Data on 26 compounds can be found in patent publication US20240425491A1, “HETEROARYL COMPOUNDS USEFUL IN THE TREATMENT OF COGNITIVE DISORDERS” (University College Cardiff Consultants Limited, priority 2021, published 2024).

T1 sequence (P31644 32-462): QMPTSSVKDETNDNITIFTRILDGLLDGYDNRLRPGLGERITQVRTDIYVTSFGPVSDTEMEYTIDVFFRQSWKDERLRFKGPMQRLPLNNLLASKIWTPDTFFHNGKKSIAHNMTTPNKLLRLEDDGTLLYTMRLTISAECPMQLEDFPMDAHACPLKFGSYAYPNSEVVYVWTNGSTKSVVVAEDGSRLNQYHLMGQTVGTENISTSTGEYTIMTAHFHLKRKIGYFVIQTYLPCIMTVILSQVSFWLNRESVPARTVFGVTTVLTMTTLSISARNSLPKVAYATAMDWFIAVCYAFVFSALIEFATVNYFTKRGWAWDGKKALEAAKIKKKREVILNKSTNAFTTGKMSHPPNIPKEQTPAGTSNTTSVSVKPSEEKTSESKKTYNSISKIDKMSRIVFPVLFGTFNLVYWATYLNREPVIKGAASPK
T1 sequence (P28472 26-473 partner): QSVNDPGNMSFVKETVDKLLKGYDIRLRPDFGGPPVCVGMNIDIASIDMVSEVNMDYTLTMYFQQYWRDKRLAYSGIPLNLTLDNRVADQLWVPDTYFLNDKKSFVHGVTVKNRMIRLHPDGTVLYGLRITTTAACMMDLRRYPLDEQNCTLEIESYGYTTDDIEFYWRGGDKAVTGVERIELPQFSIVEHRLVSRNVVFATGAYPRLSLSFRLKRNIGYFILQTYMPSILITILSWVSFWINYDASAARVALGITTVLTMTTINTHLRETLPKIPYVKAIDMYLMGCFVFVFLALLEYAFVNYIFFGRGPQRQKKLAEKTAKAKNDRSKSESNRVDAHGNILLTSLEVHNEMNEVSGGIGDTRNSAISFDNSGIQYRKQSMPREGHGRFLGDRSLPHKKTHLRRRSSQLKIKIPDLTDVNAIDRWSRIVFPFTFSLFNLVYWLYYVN
T1 sequence (P18507 40-475): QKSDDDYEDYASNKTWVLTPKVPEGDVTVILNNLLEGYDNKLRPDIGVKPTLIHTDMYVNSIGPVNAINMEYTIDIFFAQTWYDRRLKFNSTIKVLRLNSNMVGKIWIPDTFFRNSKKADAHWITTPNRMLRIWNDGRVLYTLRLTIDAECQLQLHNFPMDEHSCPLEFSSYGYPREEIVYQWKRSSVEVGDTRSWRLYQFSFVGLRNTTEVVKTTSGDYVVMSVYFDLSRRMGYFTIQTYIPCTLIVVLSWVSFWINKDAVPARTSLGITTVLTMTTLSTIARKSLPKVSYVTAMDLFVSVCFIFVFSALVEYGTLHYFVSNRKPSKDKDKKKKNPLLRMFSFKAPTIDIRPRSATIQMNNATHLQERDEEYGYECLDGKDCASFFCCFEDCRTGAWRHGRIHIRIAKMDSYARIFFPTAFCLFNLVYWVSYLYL

The first assay concerns the target T1, human recombinant GABAAR containing α5β3γ2 subunits (benzodiazepine site) (Homo sapiens, UniProt P18507+P31644).
T1 construct: expressed in transfected cells; host or cells: mouse L(tk−) cells, dexamethasone-inducible vector pMSGneo
As to the kind of experiment: In vitro radioligand binding assay (α5-GABAAR Ki).
Settings: not given
From the text:
Mouse L(tk^−) cells stably expressing human α1β3γ2, α2β3γ2, α3β3γ2, α5β3γ2 GABAARs generated by transfection of the individual subunits in the dexamethasone-inducible expression vector pMSGneo in mouse L(tk^−) cells (Hadingham et al., 1993, Mol. Pharmacol. 43:970-975 and 1993, Mol. Pharmacol. 44:1211-1218) were used for binding and functional assays. For certain compounds, HEK293 cells stable expressing the human α1β3γ2L, α2β3γ2L, α3β3γ2L and α5β3γ2L GABAA receptors were used to evaluate their functional effects in a SyncroPatch electrophysiology assay.
L(tk^−) cells stably expressing human α1β3γ2, α2β3γ2, α3β3γ2, α5β3γ2 GABAARs were maintained in DMEM F12 medium supplemented with 10% Foetal Bovine Serum, 1% Penicillin/Streptomycin and 1 mg/mL Geneticin G418 in an incubator at 37° C. with a humidified atmosphere with 5% CO2.
The affinity (Ki) of compounds for the benzodiazepine site of human recombinant GABAARs was measured by their ability to inhibit the binding of the selective benzodiazepine antagonist [^3H] Ro15-1788 ([^3H] flumazenil).
L(tk^−) cells expressing human recombinant GABAAR containing α1β3γ2, α2β3γ2, α3β3γ2, α5β3γ2 subunits were harvested and membranes were prepared for each receptor combination in phosphate buffer (K2PO4 10 mM, pH 7.0) (Hadingham et al. (1992) Proc. Natl. Acad. Sci. USA; 89 (14): 6378-82). Protein concentration, receptor expression and the Kd of [^3H] Ro15-1788 were determined before Ki values of compounds were evaluated. For Kd evaluation, saturation binding curves were obtained by incubating membrane with various concentrations of [^3H] Ro15-1788 (82.5 Ci/mM), with nonspecific binding measured in the presence of 1 μM TP003.
For Ki evaluation, cell membranes were incubated with 4 nM [^3H] Ro15-1788 along with a range of concentrations of test compound. Nonspecific binding was determined using 1 μM TP003. All incubations were performed for 1 hour at 4° C. in assay buffer. The total assay volume was 0.5 mL, containing 100 μg membrane protein/well α1β3γ2, α2β3γ2, α3β3γ2 and 50 μg membrane protein/well for α53γ2. Incubations were terminated by filtration and washing with ice cold Tris-HCl buffer (50 mM, pH=7.4) over Whatman GF/B filters and the radioactivity of the filters was measured using liquid scintillation counting.
The % inhibition of [^3H] Ro15-1788 binding was plotted as a function of compound concentration and the IC50 calculated. From the IC50, the affinity (Ki) was calculated using the method of Cheng and Prusoff using the Kd values obtained for [^3H] Ro15-1788.
`COc1cc2c(-c3ccc(NC(=O)c4c(-c5ccccc5)noc4C)c(OC)n3)cn(C)c2cn1` [Example 109, N-(2-Methoxy-6-(5-methoxy-1-methyl-1H-pyrrolo[2,3-c]pyridin-3-yl)pyridin-3-yl)-5-methyl-3-phenylisoxazole-4-carboxamide]: the Ki came out at 47.2 nM.

Still in this assay, the particulars now being: inhibition of [3H]Ro15-1788 binding, membranes of L(tk−) cells expressing human α5β3γ2; read-out: α5-GABAAR Ki.
Regarding `COc1nc(-c2cccc([N+](=O)[O-])c2)ccc1NC(=O)c1c(-c2ccccc2)noc1C` [Example 8, N-[2-Methoxy-6-(3-nitrophenyl)-3-pyridyl]-5-methyl-3-phenyl-isoxazole-4-carboxamide], the Ki amounted to 104 nM.

In the case of `COc1ncc(-c2ccc(NC(=O)c3c(-c4ccccc4)noc3C)c(OC)n2)s1` [Example 10, N-[2-Methoxy-6-(2-methoxythiazol-5-yl)-3-pyridyl]-5-methyl-3-phenyl-isoxazole-4-carboxamide], the Ki was 72.9 nM.

For `COc1nc(-c2cccc(N(C)C)c2)ccc1NC(=O)c1c(-c2ccccc2)noc1C` [Example 16, N-[6-[3-(Dimethylamino)phenyl]-2-methoxy-3-pyridyl]-5-methyl-3-phenyl-isoxazole-4-carboxamide], the Ki came to 403 nM.

`COc1nc(-c2ccncc2C)ccc1NC(=O)c1c(-c2ccccc2)noc1C` [Example 24, N-[2-Methoxy-6-(3-methyl-4-pyridyl)-3-pyridyl]-5-methyl-3-phenyl-isoxazole-4-carboxamide]: the Ki is 162 nM.

Turning to `COc1nc(-c2c(C)n[nH]c2C)ccc1NC(=O)c1c(-c2ccccc2)noc1C` [Example 25, N-[6-(3,5-Dimethyl-1H-pyrazol-4-yl)-2-methoxy-3-pyridyl]-5-methyl-3-phenyl-isoxazole-4-carboxamide], the Ki was determined as 34.2 nM.

For the compound `COc1cc(-c2c(C)n[nH]c2C)cnc1NC(=O)c1c(-c2ccccc2)noc1C` [Example 31, N-[5-(3,5-Dimethyl-1H-pyrazol-4-yl)-3-methoxy-2-pyridyl]-5-methyl-3-phenyl-isoxazole-4-carboxamide], the Ki worked out at 69.1 nM.

As for `COc1nc(-c2cc(OC)c3cn[nH]c3c2)ccc1NC(=O)c1c(-c2ccccc2)noc1C` [Example 32, N-[2-Methoxy-6-(4-methoxy-1H-indazol-6-yl)-3-pyridyl]-5-methyl-3-phenyl-isoxazole-4-carboxamide], the Ki came to 110 nM.

Take `COc1nc(-c2ccc3cn[nH]c3c2)ccc1NC(=O)c1c(-c2ccccc2)noc1C` [Example 34, N-[6-(1H-Indazol-6-yl)-2-methoxy-3-pyridyl]-5-methyl-3-phenyl-isoxazole-4-carboxamide]: the Ki came out at 115 nM.

As for `COc1nc(-c2ccc3c(N)n[nH]c3c2)ccc1NC(=O)c1c(-c2ccccc2)noc1C` [Example 35, N-[6-(3-Amino-1H-indazol-6-yl)-2-methoxy-3-pyridyl]-5-methyl-3-phenyl-isoxazole-4-carboxamide], the Ki was 27.2 nM.

On to `COc1nc(-c2cnc(Cl)nc2)ccc1NC(=O)c1c(-c2ccccc2)noc1C` [Example 36, N-[6-(2-Chloropyrimidin-5-yl)-2-methoxy-3-pyridyl]-5-methyl-3-phenyl-isoxazole-4-carboxamide], for which the Ki turned out to be 2 nM.

With `COc1nc(-c2nccn3ccnc23)ccc1NC(=O)c1c(-c2ccccc2)noc1C` [Example 38, N-(6-Imidazo[1,2-a]pyrazin-8-yl-2-methoxy-3-pyridyl)-5-methyl-3-phenyl-isoxazole-4-carboxamide], the Ki amounted to 57.6 nM.

As to `COc1nc(-c2cnc(N)c(OC)n2)ccc1NC(=O)c1c(-c2ccccc2)noc1C` [Example 39, N-[6-(5-Amino-6-methoxy-pyrazin-2-yl)-2-methoxy-3-pyridyl]-5-methyl-3-phenyl-isoxazole-4-carboxamide], the Ki was determined as 32.3 nM.

Turning to `COc1nc(-c2ncn(C)n2)ccc1NC(=O)c1c(-c2ccccc2)noc1C` [Example 51, N-[2-Methoxy-6-(1-methyl-1,2,4-triazol-3-yl)-3-pyridyl]-5-methyl-3-phenyl-isoxazole-4-carboxamide], the Ki worked out at 20.5 nM.

Take `COc1nc(-c2ncccn2)ccc1NC(=O)c1c(-c2ccccc2)noc1C` [Example 63, N-(2-Methoxy-6-pyrimidin-2-yl-3-pyridyl)-5-methyl-3-phenyl-isoxazole-4-carboxamide]: the Ki was determined as 32.6 nM.

With `COc1nc(-c2cccnn2)ccc1NC(=O)c1c(-c2ccccc2)noc1C` [Example 64, N-(2-Methoxy-6-pyridazin-3-yl-3-pyridyl)-5-methyl-3-phenyl-isoxazole-4-carboxamide], the Ki was found to be 21.9 nM.

`COc1nc(-c2ccncn2)ccc1NC(=O)c1c(-c2ccccc2)noc1C` [Example 65, N-(2-Methoxy-6-pyrimidin-4-yl-3-pyridyl)-5-methyl-3-phenyl-isoxazole-4-carboxamide]: the Ki came out at 49 nM.

For `COc1nc(-c2nccs2)ccc1NC(=O)c1c(-c2ccccc2)noc1C` [Example 66, N-(2-Methoxy-6-thiazol-2-yl-3-pyridyl)-5-methyl-3-phenyl-isoxazole-4-carboxamide], the Ki was 236 nM.

Turning to `COc1nc(-c2ccsn2)ccc1NC(=O)c1c(-c2ccccc2)noc1C` [Example 69, N-(6-Isothiazol-3-yl-2-methoxy-3-pyridyl)-5-methyl-3-phenyl-isoxazole-4-carboxamide], the Ki stood at 232 nM.

Regarding `COc1nc(-c2ccccn2)ccc1NC(=O)c1c(-c2ccccc2)noc1C` [Example 73, N-[2-Methoxy-6-(2-pyridyl)-3-pyridyl]-5-methyl-3-phenyl-isoxazole-4-carboxamide], the Ki was determined as 154 nM.

Take `COc1nc(-c2ccc(SC(F)(F)F)nc2)ccc1NC(=O)c1c(-c2ccccc2)noc1C` [Example 76, N-(6-Methoxy-6′-((trifluoromethyl)thio)-[2,3′-bipyridin]-5-yl)-5-methyl-3-phenyl-isoxazole-4-carboxamide]: the inhibition constant Ki was 297 nM.

For the compound `COc1nc(-c2ccc(OC(F)F)nc2)ccc1NC(=O)c1c(-c2ccccc2)noc1C` [Example 88, N-(6′-(Difluoromethoxy)-6-methoxy-[2,3′-bipyridin]-5-yl)-5-methyl-3-phenyl-isoxazole-4-carboxamide], the Ki is 26.6 nM.

`COc1nc(-c2cnc(N(C)C)c(Cl)c2)ccc1NC(=O)c1c(-c2ccccc2)noc1C` [Example 98, N-(5′-Chloro-6′-(dimethylamino)-6-methoxy-[2,3′-bipyridin]-5-yl)-5-methyl-3-phenylisoxazole-4-carboxamide]: the Ki was 664 nM.

As to `COc1nc(-c2nnn(C)c2C)ccc1NC(=O)c1c(-c2ccccc2)noc1C` [Example 101, N-(6-(1,5-Dimethyl-1H-1,2,3-triazol-4-yl)-2-methoxypyridin-3-yl)-5-methyl-3-phenylisoxazole-4-carboxamide], the Ki is 45.1 nM.

For `COc1nc(-c2c[nH]c3ncccc23)ccc1NC(=O)c1c(-c2ccccc2)noc1C` [Example 105, N-(2-Methoxy-6-(1H-pyrrolo[2,3-b]pyridin-3-yl)pyridin-3-yl)-5-methyl-3-phenylisoxazole-4-carboxamide], the Ki worked out at 113 nM.

Turning to `COc1nc(-c2cnn3cccnc23)ccc1NC(=O)c1c(-c2ccccc2)noc1C` [Example 112, N-(2-Methoxy-6-(pyrazolo[1,5-a]pyrimidin-3-yl)pyridin-3-yl)-5-methyl-3-phenylisoxazole-4-carboxamide], the Ki is 80.6 nM.
